Laboratory results reported in US11306360B2, “Assessment of cellular signaling pathway activity using linear combination(s) of target gene expressions” (KONINKLIJKE PHILIPS N.V., priority 2012, dated 2022).

How the values were obtained:
ER pathway [1] = test: ER activity score validation in MCF7 breast cancer cell line (GSE9253); type: cell-based; conditions: MCF7 sample stimulated with E2, 3 hours
Source text: FIG. 17 ER validation results of a stimulation experiment with MCF7 cells (GSE9253, continuous data). The (pseudo-)linear model was trained using continuous expression data of GSE8597, the “most discriminative probesets” (underlined probesets in Table 2) and “log odds” weights (see training results in FIG. 10). It is clear from the MCF7 cells stimulated with E2, ER stimulating agent, that the defined threshold was set too high. The reason for this discrepancy could be a different stimulation regime (i.e. higher E2 concentration, but shorter stimulation time, etc.). Nevertheless, the difference of the calculated ER activity scores of the stimulated and non-stimulated cells is evident.
In FIG. 17 the validation results of the trained ER (pseudo-)linear model is shown for two microarrays measured using a MCF7 breast cancer cell line sample, one stimulated with estradiol (E2) the other one with a negative control (EtOH), originating from the GSE9253 data set. The difference in ER activity score is evident from FIG. 17. […] This is the result of the threshold defining either an active or passive state was set too high for this particular experiment. […]

ER pathway [2] = test: Predicted ER pathway activity in wild type MCF7 cell line (GSE21618); type: cell-based
Procedure: (§1) The ER (pseudo-)linear model was trained using continuous expression data of GSE8597, the “most discriminative probesets” (underlined probesets in Table 2) and “log odds” weights (see training results in FIG. 10). Different stimulation regimes were applied, denoted in the different groups of samples, and the expression of mRNA was measured by microarray at 0, 1, 2, 3, 6, 12, 24, 48 hours, denoted by the consecutive samples in the groups.
(§2) The (pseudo-)linear model of the ER pathway, constructed using a node for the transcription factor presence and a layer of probesets (Table 2) associated with the target genes of the ER pathway, analogous to FIG. 2 as described herein, and trained as described herein, was used to calculate the ER pathway activity score.
(§3) With respect to FIG. 20, Tamoxifen is a drug currently used for the treatment of ER+ (estrogen receptor positive) breast cancer. It acts as a partial antagonist of the estrogen receptor inhibiting the uncontrolled cell proliferation which is thought to be induced by ER signaling. […] Many studies have been conducted to investigate this so-called Tamoxifen resistance. The publicly available GSE21618 data set is the result of one of such study and contains microarray data of Tamoxifen resistant and wildtype MCF7 cell lines under different treatment regimes. […]

ER pathway [3] = test: ER pathway activity score in MCF7 cells stimulated with or deprived of E2 (GSE11352); type: cell-based; conditions: MCF7, longer exposure times (12, 24, 48 hours) to ER stimulating agent
Source text: FIG. 12 ER pathway prediction in stimulation response data of MCF7 cells treated with ER stimulating agent (E2) or control for several treatment intervals (GSE11352, continuous data). The model is trained using continuous expression data of GSE8597, the “most discriminative probesets” (underlined probesets in Table 2) and “log odds” weights (see training results in FIG. 10).
In another example, a publically available data set of MCF7 cell lines stimulated with or deprived of ER stimulating agent (E2) with expression levels measured at 12 hours, 24 hours and 48 hours after starting stimulation or deprivation (GSE11352) was used to calculate the ER activity scores using the trained ER (pseudo-)linear model as described herein. […] With the exception of the starvation of 48 hours, the predicted ER activity scores nicely correlates with the knowledge that prolonged stimulation result in higher ER activity and vice versa. Inversely, this example implies that the ER activity score can be used to monitor efficacy or inefficacy of stimulation or inhibition of ER activity treatments.

AR pathway = conditions: LNCaP stimulated with DHT for 4 hours, compared with 16 hours
Source text: FIG. 13 AR training results using fuzzy transformed expression data of GSE7868, “all probesets” as mentioned in Table 4 and “black and white” weights. The 1st and 2nd group of samples (from the left) has been used as negative and positive training samples, respectively.
The expression data of these stimulation experiments are publically available in the GSE7868 dataset that has been fuzzy transformed as described herein. […] The 1st and 2nd group of samples from the left has been used as negative and positive training samples, respectively.

ER pathway [4] = test: Predicted ER pathway activity in Tamoxifen resistant MCF7 cell line (GSE21618); type: cell-based; conditions: Tamoxifen resistant cell line stimulated with E2 and treated with Tamoxifen (TamR.E2_Tam); 1, 2, 3, 6, 12, 24 and 48 h
Procedure: as §1, §2, §3

SMILES: C[C@]12CC[C@@H]3c4ccc(O)cc4CC[C@H]3[C@@H]1CC[C@@H]2O [E2, 17beta-estradiol]
- ER activity score (ER pathway [1]): slightly negative ER activity score
- ER activity predictions (ER pathway [2]; wild type MCF7 treated with 17beta-estradiol (wt1.E2)): increasing ER positive activity predictions
- ER pathway activity score (ER pathway [3]): increase for longer exposure times

SMILES: C[C@]12CCC(=O)C[C@@H]1CC[C@@H]1[C@@H]2CC[C@]2(C)[C@@H](O)CC[C@@H]12 [DHT, Dihydrotestosterone]
- AR activity (AR pathway): demonstrates AR activity, albeit lower activity levels than the cells stimulated for 16 hours

SMILES: CC/C(=C(\c1ccccc1)c1ccc(OCCN(C)C)cc1)c1ccccc1 [Tamoxifen]
- ER pathway activity score in time (ER pathway [2]; wild type MCF7 stimulated with E2 and treated with Tamoxifen (wt2.E2_Tam)): decreasing ER pathway activity score in time
- predicted ER pathway activity (ER pathway [4]): ineffective
